Reference: patent US20230106583A1, “HETEROARYL COMPOUNDS” (Vivace Therapeutics, Inc., priority 2019, published 2023)

Test system: HEK293T cells stably transfected with 8XTBD luciferase reporter and pRLTK
Experiment: YAP Reporter Assay (8XTBD-driven firefly luciferase)
Type: cell-based
Conditions: Homo sapiens, HEK-293T; HEK293T 8XTBD luciferase reporter; 24-hr incubation with compounds; top concentration 3 μM, 10 points
Experimental: HEK293T cells stably transfected with 8XTBD luciferase reporter and pRLTK in 384-well plates were treated with the test compounds, starting from 3 μM (final concentration in assay plate), 1:3 dilution, and 10 points in quadruplicates. Post 24-hr incubation with compounds at 37° C. and 5% CO2, cells were lysed and 8XTBD-driven firefly luciferase and control TK-driven renilla luciferase activities were measured using Promega Dual-Luciferase Reporter Assay System.
Reagents: The reagents used for this study are: DMEM: Invitrogen #11960077, Dual-Glo Luciferase Assay System: Promega-E2980, Puromycin Dihydrochloride: Invitrogen-A1113803, 384-well plate: PerkinElmer-6007480, L-GLUTAMINE: Invitrogen-25030164, Hygromycin B: Invitrogen-10687010, and Penicillin-Streptomycin: Merk-TMS-AB2-C
Media: The media used for this assay were: Culture Medium: DMEM+1 ug/mL puromycin+200 ug/mL hygromycin (with 10% FBS+1 mM L-glutamine); and Assay Medium: DMEM (with 10% FBS+1 mM L-glutamine+1×P/S).
Cell Plating: The appropriate media was warmed at 37° C. by water bath: Culture Medium, Assay Medium, 1*D-PBS, 0.05% trypsin-EDTA. The cells were trypsinized after removing all media, then washed with 1*sterile D-PBS and then with 2 ml 0.05% trypsin-EDTA. The cells were then incubated at RT for one minute. Then 10 ml/75 cm2 flask Assay Medium was added to each flask. Using a 10 ml pipette, the cells were then gently resuspended in the media, until the clumps completely disappeared. The cells were then transferred into 50 ml centrifuge tubes and were centrifuged at 800 rpm for 5 mins. The medium was removed and the cells were resuspended with Assay Medium. An aliquot of cells was used to count the cell density (cells/ml). The cell suspension was then diluted with Assay Medium to a concentration of 6×10^4 cells/ml. 50 ul cells suspension was then plated to 384-well plate (PerkinElmer-6007480), 3×10^3 cells/well and the cells were incubated in an incubator at 37° C., 5% CO2.
Compound Treatment: In the afternoon (incubation of the plate with 3-4 hrs), the test compounds were added by Echo, starting from 3 uM (final concentration in the assay plate), 1:3 dilution, 10 points, quadruplicates. The plate was placed at 37° C., 5% CO2 incubator for 24 hrs.
Detection: The Dual-Glo Luciferase Reagent was prepared by transferring the contents of one bottle of Dual-Glo Luciferase Buffer to one bottle of Dual-Glo Luciferase Substrate to create the Dual-Glo Luciferase Reagent. Mixing was performed by inversion until the substrate was thoroughly dissolved. After mixing, the reagent was aliquoted into 15 ml tubes. In the afternoon (24 hrs post compound treatment), the DMEM+medium in the 384 well plates were aspirated by Microplate Washer.
Measuring firefly luciferase activity: 20 ul Dual-Glo Luciferase Reagent was added to the 384-well plates. The plates were protected from light to prevent interference with the assay. The plates were shaken for 1 min followed centrifuging plates at 1000 rpm for 30 seconds. After waiting at least 10 minutes, the firefly luminescence was measured by Envision.
Measuring renilla luciferase activity: 20 ul Stop-Glo Reagent was added to the 384-well plates. The plates were shaken for 1 min and then centrifuged at 1000 rpm for 30 seconds. After waiting at least 10 minutes, the renilla luminescence was measured by Envision.
Compound IC50 and maximum inhibition on the firefly luciferase and renilla luciferase activities were reported separately.

| Compound | IC50 [nM] |
| --- | --- |
| CN(C#N)CCc1nnc(-c2nccnc2Nc2ccc(C(F)(F)F)cc2)o1 [Compound 1, methyl-[2-[5-[3-[4-(trifluoromethyl)anilino]pyrazin-2-yl]-1,3,4-oxadiazol-2-yl]ethyl]cyanamide] | ≤ 100 |
| CCN(C#N)CCc1nnc(-c2nccnc2Nc2ccc(C(F)(F)F)cc2)o1 [Compound 2, ethyl-[2-[5-[3-[4-(trifluoromethyl)anilino]pyrazin-2-yl]-1,3,4-oxadiazol-2-yl]ethyl]cyanamide] | ≤ 100 |
| CCN(C#N)Cc1nnc(-c2cccnc2Nc2ccc(C(F)(F)F)cc2)o1 [Compound 5, ethyl-[[5-[2-[4-(trifluoromethyl)anilino]-3-pyridyl]-1,3,4-oxadiazol-2-yl]methyl]cyanamide] | ≤ 100 |
| CN(C#N)Cc1nnc(-c2cccnc2Nc2ccc(C(F)(F)F)cc2)o1 [Compound 6, methyl-[[5-[2-[4-(trifluoromethyl)anilino]-3-pyridyl]-1,3,4-oxadiazol-2-yl]methyl]cyanamide] | ≤ 100 |
| CCN(Cc1nnc(-c2cccnc2Nc2ccc(C(F)(F)F)cc2)o1)C(=O)OC(C)(C)C [Compound 8, tert-butyl N-ethyl-N-[[5-[2-[4-(trifluoromethyl)anilino]-3-pyridyl]-1,3,4-oxadiazol-2-yl]methyl]carbamate] | 1000 to 3000 |
| CNCc1nnc(-c2cccnc2Nc2ccc(C(F)(F)F)cc2)o1 [Compound 9, 3-[5-(methylaminomethyl)-1,3,4-oxadiazol-2-yl]-N-[4-(trifluoromethyl)phenyl]pyridin-2-amine] | 100 to 1000 |
| C[C@]1(c2nnc(-c3cccnc3Nc3ccc(C(F)(F)F)cc3)o2)CCNC1=O [Compound 12, (R)-3-methyl-3-(5-(2-((4-(trifluoromethyl)phenyl)amino)pyridin-3-yl)-1,3,4-oxadiazol-2-yl)pyrrolidin-2-one] | ≤ 100 |
| C[C@@]1(c2nnc(-c3cccnc3Nc3ccc(C(F)(F)F)cc3)o2)CCNC1=O [Compound 13, (S)-3-methyl-3-(5-(2-((4-(trifluoromethyl)phenyl)amino)pyridin-3-yl)-1,3,4-oxadiazol-2-yl)pyrrolidin-2-one] | ≤ 100 |
| CCN(C#N)CCc1nnc(-c2cccnc2Nc2ccc(C(F)(F)F)cc2)o1 [Compound 15, ethyl-[2-[5-[2-[4-(trifluoromethyl)anilino]-3-pyridyl]-1,3,4-oxadiazol-2-yl]ethyl]cyanamide] | ≤ 100 |
| CN(C#N)CCc1nnc(-c2cccnc2Nc2ccc(C(F)(F)F)cc2)o1 [Compound 16, methyl-[2-[5-[2-[4-(trifluoromethyl)anilino]-3-pyridyl]-1,3,4-oxadiazol-2-yl]ethyl]cyanamide] | ≤ 100 |
| CC1(c2nnc(-c3cccnc3Nc3ccc(C(F)(F)F)cc3)o2)CCNC1=O (stereo not shown) [Compound 19, 3-methyl-3-(5-(2-((4-(trifluoromethyl)phenyl)amino)pyridin-3-yl)-1,3,4-oxadiazol-2-yl)pyrrolidin-2-one] | ≤ 100 |
| CC1(c2nnc(-c3nccnc3Nc3ccc(C(F)(F)F)cc3)o2)CCNC1=O (stereo not shown) [Compound 20, 3-methyl-3-{5-[3-(4-trifluoromethyl-phenylamino)-pyrazin-2-yl]-[1,3,4]oxadiazol-2-yl}-pyrrolidin-2-one] | ≤ 100 |
| CC[C@@]1(c2nnc(-c3cccnc3Nc3ccc(S(F)(F)(F)(F)F)cc3)o2)CCCNC1=O [Compound 21, (3S)-3-ethyl-3-[5-[2-[4-(pentafluoro-λ6-sulfanyl)anilino]-3-pyridyl]-1,3,4-oxadiazol-2-yl]piperidin-2-one] | ≤ 100 |
| CC[C@]1(c2nnc(-c3cccnc3Nc3ccc(S(F)(F)(F)(F)F)cc3)o2)CCCNC1=O [Compound 22, (3R)-3-ethyl-3-[5-[2-[4-(pentafluoro-λ6-sulfanyl)anilino]-3-pyridyl]-1,3,4-oxadiazol-2-yl]piperidin-2-one] | 100 to 1000 |
| CC[C@]1(c2nnc(-c3cccnc3Nc3ccc(S(F)(F)(F)(F)F)cc3)o2)CCNC1=O [Compound 23, (3R)-3-ethyl-3-[5-[2-[4-(pentafluoro-λ^6-sulfanyl)anilino]-3-pyridyl]-1,3,4-oxadiazol-2-yl]pyrrolidin-2-one] | 100 to 1000 |
| CC[C@@]1(c2nnc(-c3cccnc3Nc3ccc(S(F)(F)(F)(F)F)cc3)o2)CCNC1=O [Compound 24, (3S)-3-ethyl-3-[5-[2-[4-(pentafluoro-λ^6-sulfanyl)anilino]-3-pyridyl]-1,3,4-oxadiazol-2-yl]pyrrolidin-2-one] | ≤ 100 |
| CN1CCNC(=O)C1(C)c1nnc(-c2cccnc2Nc2ccc(C(F)(F)F)cc2)o1 (stereo not shown) [Compound 25, 3,4-dimethyl-3-[5-[2-[4-(trifluoromethyl)anilino]-3-pyridyl]-1,3,4-oxadiazol-2-yl]piperazin-2-one] | 100 to 1000 |
| CC1(c2nnc(-c3cccnc3Nc3ccc(C(F)(F)F)cc3)o2)NCCNC1=O (stereo not shown) [Compound 26, 3-methyl-3-[5-[2-[4-(trifluoromethyl)anilino]-3-pyridyl]-1,3,4-oxadiazol-2-yl]piperazin-2-one] | ≤ 100 |
| C[C@@]1(n2nnc(-c3cccnc3Nc3ccc(S(F)(F)(F)(F)F)cc3)n2)CCNC1=O [Compound 27, (3R)-3-methyl-3-[5-[2-[4-(pentafluoro-λ^6-sulfanyl)anilino]-3-pyridyl]tetrazol-2-yl]pyrrolidin-2-one] | 100 to 1000 |
| C[C@]1(n2nnc(-c3cccnc3Nc3ccc(S(F)(F)(F)(F)F)cc3)n2)CCNC1=O [Compound 28, (3S)-3-methyl-3-[5-[2-[4-(pentafluoro-λ^6-sulfanyl)anilino]-3-pyridyl]tetrazol-2-yl]pyrrolidin-2-one] | ≤ 100 |
| C[C@]1(c2nnc(-c3cccnc3Nc3ccc(S(F)(F)(F)(F)F)cc3)o2)CCCNC1=O [Compound 29, (3R)-3-methyl-3-[5-[2-[4-(pentafluoro-λ^6-sulfanyl)anilino]-3-pyridyl]-1,3,4-oxadiazol-2-yl]piperidin-2-one] | ≤ 100 |
| C[C@@]1(c2nnc(-c3cccnc3Nc3ccc(S(F)(F)(F)(F)F)cc3)o2)CCCNC1=O [Compound 30, (3S)-3-methyl-3-[5-[2-[4-(pentafluoro-λ^6-sulfanyl)anilino]-3-pyridyl]-1,3,4-oxadiazol-2-yl]piperidin-2-one] | 100 to 1000 |
| CC[C@@]1(c2nnc(-c3cccnc3Nc3ccc(C(F)(F)F)cc3)o2)CCCNC1=O [Compound 31, (3S)-3-ethyl-3-[5-[2-[4-(trifluoromethyl)anilino]-3-pyridyl]-1,3,4-oxadiazol-2-yl]piperidin-2-one] | 100 to 1000 |
| CC[C@]1(c2nnc(-c3cccnc3Nc3ccc(C(F)(F)F)cc3)o2)CCCNC1=O [Compound 32, (3R)-3-ethyl-3-[5-[2-[4-(trifluoromethyl)anilino]-3-pyridyl]-1,3,4-oxadiazol-2-yl]piperidin-2-one] | ≤ 100 |
| CC[C@]1(c2nnc(-c3cccnc3Nc3ccc(C(F)(F)F)cc3)o2)CCNC1=O [Compound 33, (3R)-3-ethyl-3-[5-[2-[4-(trifluoromethyl)anilino]-3-pyridyl]-1,3,4-oxadiazol-2-yl]pyrrolidin-2-one] | ≤ 100 |
| CC[C@@]1(c2nnc(-c3cccnc3Nc3ccc(C(F)(F)F)cc3)o2)CCNC1=O [Compound 34, (3S)-3-Ethyl-3-[5-[2-[4-(trifluoromethyl)anilino]-3-pyridyl]-1,3,4-oxadiazol-2-yl]pyrrolidin-2-one] | ≤ 100 |
| C[C@]1(c2nnc(-c3cccnc3Nc3ccc(S(F)(F)(F)(F)F)cc3)o2)CCNC1=O [Compound 35, (3R)-3-methyl-3-[5-[2-[4-(pentafluoro-λ^6-sulfanyl)anilino]-3-pyridyl]-1,3,4-oxadiazol-2-yl]pyrrolidin-2-one] | 100 to 1000 |
| C[C@@]1(c2nnc(-c3cccnc3Nc3ccc(S(F)(F)(F)(F)F)cc3)o2)CCNC1=O [Compound 36, (3S)-3-methyl-3-[5-[2-[4-(pentafluoro-λ^6-sulfanyl)anilino]-3-pyridyl]-1,3,4-oxadiazol-2-yl]pyrrolidin-2-one] | ≤ 100 |
